Data taken from US7667036B2, “Pyrazolo[1,5-a]pyrimidine derivatives” (Teijin Pharma Limited, priority 2004, dated 2010).

Target: MAPKAP-K2 (Homo sapiens, UniProt P49137)
Assay: MAPKAP-K2 enzyme activity inhibition assay, Method B (33P-ATP, MultiScreen-PH plate)
Format: biochemical
Conditions: recombinant human MAPKAP-K2, 0.5% DMSO, 30 min room temperature, read-out: Inhibitory activity (MAPKAP-K2 IC50 class)
Protocol: The assay of inhibitory activity was performed according to Method A described below for Compound No. 1, 2, 3, 4, 20, 21, 22, 23, 24, 25, 26, 79, 80 and 81, and Method B described below for the other compounds.
A compound was dissolved in […] to make its concentration to 20 mmol/L, and the resultant solution was stored at −20° C. The stock solution was sequentially diluted with DMSO to prepare a solution having a 200-fold concentration of the required range. Further the solution was diluted with water to 1:20 to prepare a solution having a 10-fold concentration of the required range, and an aliquot of 5 μL of each solution was used for every reaction with 50 μL. During the continuous dilution of all compounds, the final DMSO concentration was maintained at 0.5%. Compounds were routinely tested at a final concentration ranging from 100 μmol/L to 0.03 μmol/L, but were sometimes tested at a lower concentration depending upon their activity.
The reaction was initiated by adding 25 μL of a peptide substrate solution [60 μmol/L substrate peptide, 20 μmol/L ATP, 50 mmol/L Tris buffer (pH 7.5), 0.1 mmol/L EGTA, 0.1% β-mercaptoetanol, 20 mmol/L magnesium acetate, and 0.1 μCi [γ-33P]ATP (specific radio activity: approximately 110 TBq/mmol)] to 5 μL of a 5% DMSO solution of the test compound and subsequently adding 20 μL of a MAPKAP-K2 enzyme solution [10 mU recombinant human MAPKAP-K2, 50 mmol/L Tris buffer (pH 7.5), 0.1 mmol/L EGTA, 0.1% β-mercaptoethanol, 0.1% BSA]. After performing the reaction for 30 min at room temperature, an equivalent volume of 200 mmol/L phosphoric acid solution was added to terminate the reaction. Subsequently, 90 μL of the reaction product was adsorbed on a MultiScreen-PH Plate (Millipore) and then rinsed with 100 mmol/L phosphoric acid solution. After drying the plate, 30 μL of MicroScint-O (Packard BioScience) was added, and further the count per minute was measured by a scintillation counter to determine the inhibitory activity. The substrate peptide was Lys-Lys-Leu-Asn-Arg-Tlr-Leu-Ser-Val-Ala.
• % Control=(X−B)/(Tot−B)×100 • % Inhibition=100—% Control • X=count per minute of a test compound well • B=count per minute of a well without containing enzyme • Tot=count per minute of a well with DMSO solvent only, without containing the test compound (MAPKAP-K2 inhibitory activity) • IC50 value=the compound concentration at 50% inhibition

Chain of MAPKAP-K2 (P49137 whole entry): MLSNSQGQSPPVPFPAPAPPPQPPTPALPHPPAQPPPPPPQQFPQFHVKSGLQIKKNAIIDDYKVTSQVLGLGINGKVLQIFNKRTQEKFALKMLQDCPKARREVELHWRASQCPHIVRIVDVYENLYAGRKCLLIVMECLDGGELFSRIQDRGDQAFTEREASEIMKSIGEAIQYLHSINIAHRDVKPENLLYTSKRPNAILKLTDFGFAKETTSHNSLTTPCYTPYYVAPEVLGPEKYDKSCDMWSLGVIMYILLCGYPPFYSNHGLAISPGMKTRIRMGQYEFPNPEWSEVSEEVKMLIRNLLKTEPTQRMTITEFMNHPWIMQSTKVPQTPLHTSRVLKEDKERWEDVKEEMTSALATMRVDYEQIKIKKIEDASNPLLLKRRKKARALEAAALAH

Row | IC50 [µM] | Compound
1 | 2 to 20 | CCC[C@@H]1CCNC[C@H]1Oc1nc2ccnn2c(Nc2ccc(OCC)cc2)c1C (racemic) [Compound No. 16, (dl)-(4-ethoxyphenyl)-[6-methyl-5-(trans-4-propylpiperidin-3-yloxy)pyrazolo[1,5-a]pyrimidin-7-yl]amine]
2 | 2 to 20 | CCOc1ccc(Nc2c(C)c(O[C@@H]3CNCC[C@H]3CC(N)=O)nc3ccnn23)cc1 (racemic) [Compound No. 82, (dl)-trans-2-{3-[7-(4-ethoxyphenyamino)-6-methylpyrazolo[1,5-a]pyrimidin-5-yloxyl-p]peridin-4-yl}acetamide]
3 | 2 to 20 | CCOc1ccc(Nc2c(C)c(OC3CCCNC3)nc3ccnn23)cc1 (stereo not drawn) [Compound No. 5, (dl)-(4-ethoxyphenyl)-[6-methyl-5-(pyperdin-3-yloxy)pyrazolo [1,5-a]pyrimidin-7-yl]-amine]
4 | ≤ 2 | CCOc1ccc(Nc2c(CCCO)c(O[C@H]3CC[C@H](N)CC3)nc3ccnn23)cc1 [Compound No. 88, 3-[5-(trans-4-aminocyclohexyloxy)-7-(4-ethoxyphenylamino)-pyrazolo [1,5-a]pyrimidin-6-yl]propan-1-ol]
5 | ≤ 2 | Cc1c(O[C@H]2CC[C@H](N)CC2)nc2ccnn2c1Nc1ccc(OCCOCc2ccccc2)cc1 [Compound No. 91, [5-(trans-4-aminocyclohexyloxy)-6-methylpyrazolo[1,5-a]pyrimidin-7-yl]-[4-(2-benzyloxyethoxy)phenyl]-amine]
6 | ≤ 2 | Cc1c(O[C@H]2CC[C@H](N)CC2)nc2ccnn2c1Nc1ccc(-c2cccc(N)c2)cc1 [Compound No. 93, N-4′-[5-(trans-4-aminocyclohexyloxy)-6-methylpyrazolo[1,5-a]pyrimidin-7-yl] biphenyl-3,4′-diamine]
7 | 2 to 20 | CCc1c(O[C@H]2CC[C@@H](N)CC2)nc2ccnn2c1Nc1ccccc1F [compound 9]
8 | 2 to 20 | CCc1c(O[C@H]2CC[C@@H](N)CC2)nc2ccnn2c1Nc1ccc(F)c(Cl)c1 [compound 10]
9 | 2 to 20 | C=CCc1c(O[C@H]2CC[C@@H](N)CC2)nc2ccnn2c1Nc1ccc(F)c(Cl)c1 [compound 12]
10 | 2 to 20 | CCOc1ccc(Nc2c(C)c(O[C@@H]3CC[C@@H](C)NC3)nc3ccnn23)cc1 [compound 17]
11 | 20 to 100 | CCOc1ccc(Nc2c(C)c(O[C@@H]3CC[C@H](C)NC3)nc3ccnn23)cc1 [compound 18]
12 | 20 to 100 | N[C@H]1CC[C@@H](Oc2cc(Nc3ccc(F)c(Cl)c3)n3ncc(I)c3n2)CC1 [compound 19]
13 | ≤ 2 | CCOc1ccc(Nc2c(C)c(O[C@@H]3CNCC[C@H]3CCO)nc3ccnn23)cc1 [compound 27]
14 | 20 to 100 | CCOc1ccc(Nc2c(C)c(OCCN)nc3ccnn23)cc1 [compound 28]
15 | 20 to 100 | CCOc1ccc(Nc2c(C)c(OCCCN)nc3ccnn23)cc1 [compound 29]
16 | 2 to 20 | CCOc1ccc(Nc2c(C)c(OCCCCN)nc3ccnn23)cc1 [compound 30]
17 | 20 to 100 | CCOc1ccc(Nc2c(C)c(OC(CN)c3ccccc3)nc3ccnn23)cc1 (stereo not shown) [compound 31]
18 | 20 to 100 | CCOc1ccc(Nc2c(C)c(OCC(C)N)nc3ccnn23)cc1 (stereo not shown) [compound 33]
19 | 20 to 100 | CCOc1ccc(Nc2c(C)c(OCC(N)CC)nc3ccnn23)cc1 (stereo not shown) [compound 36]
20 | 20 to 100 | CCOc1ccc(Nc2c(C)c(OCC3(N)CCCC3)nc3ccnn23)cc1 [compound 40]
21 | ≤ 2 | CCOc1ccc(Nc2c(C)c(O[C@H]3CNCC[C@@H]3CCO)nc3ccnn23)cc1 [compound 41]

Row | IC50 [µM] | Compound
22 | 20 to 100 | CCOc1ccc(Nc2c(C)c(OC(CN)CN)nc3ccnn23)cc1 [compound 42]
23 | 20 to 100 | CCOc1ccc(Nc2c(C)c(OCC(N)(CO)CO)nc3ccnn23)cc1 [compound 43]
24 | 20 to 100 | CCOc1ccc(Nc2c(C)c(OC3CC(C)(C)CC(C)(CN)C3)nc3ccnn23)cc1 (stereo not shown) [compound 44]
25 | ≤ 2 | CSc1nc2ccc(Nc3c(C)c(OC4CCCNC4)nc4ccnn34)cc2s1 (stereo not shown) [compound 45]
26 | ≤ 2 | CSc1nc2ccc(Nc3c(C)c(O[C@H]4CC[C@@H](N)CC4)nc4ccnn34)cc2s1 [compound 46]
27 | 2 to 20 | COC(=O)c1ccc(Nc2c(C)c(OC3CCCNC3)nc3ccnn23)cc1 (stereo not shown) [compound 47]
28 | 2 to 20 | Cc1c(OC2CCCNC2)nc2ccnn2c1Nc1cccc(NS(C)(=O)=O)c1 (stereo not shown) [compound 48]
29 | 20 to 100 | Cc1c(OC2CCCNC2)nc2ccnn2c1Nc1cc(OC2CCCNC2)c(C#N)cc1F (stereo not shown) [compound 49]
30 | 20 to 100 | COc1cc(Nc2c(C)c(OC3CCCNC3)nc3ccnn23)cc(OC)c1 (stereo not shown) [compound 50]
31 | 2 to 20 | Cc1c(OC2CCCNC2)nc2ccnn2c1Nc1ccc(C(=O)c2ccccc2)cc1 (stereo not shown) [compound 51]
32 | 2 to 20 | Cc1c(OC2CCCNC2)nc2ccnn2c1Nc1ccc(Cc2ccccc2)cc1 (stereo not shown) [compound 52]
33 | 20 to 100 | Cc1c(OC2CCCNC2)nc2ccnn2c1Nc1ccc(C#N)c(C(F)(F)F)c1 (stereo not shown) [compound 53]
34 | 2 to 20 | Cc1c(OC2CCCNC2)nc2ccnn2c1Nc1ccc(SC(F)(F)F)cc1 (stereo not shown) [compound 54]
35 | 20 to 100 | COc1ccc(Cl)cc1Nc1c(C)c(OC2CCCNC2)nc2ccnn12 (stereo not shown) [compound 55]
36 | 2 to 20 | CCn1c2ccccc2c2cc(Nc3c(C)c(OC4CCCNC4)nc4ccnn34)ccc21 (stereo not shown) [compound 56]
37 | 2 to 20 | Cc1c(OC2CCCNC2)nc2ccnn2c1Nc1ccc(OC(F)(F)F)c(Cl)c1 (stereo not shown) [compound 57]
38 | 2 to 20 | CCOc1ccc(Nc2c(C)c(OC3CNCCC3CO)nc3ccnn23)cc1 (stereo not shown) [compound 58]
39 | ≤ 2 | COc1ccc(Nc2ccc(Nc3c(C)c(OC4CCCNC4)nc4ccnn34)cc2)cc1 (stereo not shown) [compound 59]
40 | ≤ 2 | Cc1ccc2nc(-c3ccc(Nc4c(C)c(OC5CCCNC5)nc5ccnn45)cc3)sc2c1 (stereo not shown) [compound 60]
41 | 2 to 20 | Cc1c(OC2CCCNC2)nc2ccnn2c1Nc1ccc(S(=O)(=O)N2CCOCC2)cc1 (stereo not shown) [compound 61]
42 | 2 to 20 | CC(=O)c1ccc(Nc2c(C)c(OC3CCCNC3)nc3ccnn23)cc1 (stereo not shown) [compound 62]

Row | IC50 [µM] | Compound
43 | 20 to 100 | Cc1c(OC2CCCNC2)nc2ccnn2c1Nc1cccc2cnccc12 (stereo not shown) [compound 63]
44 | 2 to 20 | COc1ccc(Cl)cc1Nc1c(C)c(O[C@H]2CC[C@@H](N)CC2)nc2ccnn12 [compound 64]
45 | ≤ 2 | CCn1c2ccccc2c2cc(Nc3c(C)c(O[C@H]4CC[C@@H](N)CC4)nc4ccnn34)ccc21 [compound 65]
46 | ≤ 2 | COc1ccc(Nc2ccc(Nc3c(C)c(O[C@H]4CC[C@@H](N)CC4)nc4ccnn34)cc2)cc1 [compound 66]
47 | 20 to 100 | COC(=O)c1ccc(Nc2c(C)c(O[C@H]3CC[C@@H](N)CC3)nc3ccnn23)cc1 [compound 67]
48 | 2 to 20 | Cc1c(O[C@H]2CC[C@@H](N)CC2)nc2ccnn2c1Nc1cc(F)c(C#N)cc1F [compound 68]
49 | ≤ 2 | Cc1c(O[C@H]2CC[C@@H](N)CC2)nc2ccnn2c1Nc1ccc(C(=O)c2ccccc2)cc1 [compound 70]
50 | ≤ 2 | Cc1c(O[C@H]2CC[C@@H](N)CC2)nc2ccnn2c1Nc1ccc(C#N)c(C(F)(F)F)c1 [compound 72]
51 | ≤ 2 | Cc1c(O[C@H]2CC[C@@H](N)CC2)nc2ccnn2c1Nc1ccc(SC(F)(F)F)cc1 [compound 73]
52 | 2 to 20 | Cc1c(OC2CCCNC2)nc2ccnn2c1Nc1ccc2nc(SC(C)C)sc2c1 (stereo not shown) [compound 74]
53 | ≤ 2 | Cc1c(O[C@H]2CC[C@@H](N)CC2)nc2ccnn2c1Nc1ccc2nc(SC(C)C)sc2c1 [compound 75]
54 | ≤ 2 | Cc1c(O[C@H]2CC[C@@H](N)CC2)nc2ccnn2c1Nc1ccc(OCc2ccccc2)cc1 [compound 76]
55 | ≤ 2 | Cc1c(O[C@H]2CC[C@@H](N)CC2)nc2ccnn2c1Nc1ccc(I)cc1 [compound 77]
56 | ≤ 2 | Cc1c(O[C@H]2CC[C@@H](N)CC2)nc2ccnn2c1Nc1ccc(O)cc1 [compound 78]
57 | 2 to 20 | CCOc1ccc(Nc2c(C)c(O[C@@H]3CNCC[C@H]3CC(=O)NC)nc3ccnn23)cc1 [compound 83]
58 | 2 to 20 | CCOc1ccc(Nc2c(C)c(O[C@@H]3CNCC[C@H]3CC(=O)N(C)C)nc3ccnn23)cc1 [compound 84]
59 | 2 to 20 | CCOc1ccc(Nc2c(C)c(O[C@@H]3CNCC[C@H]3CC(=O)NCc3ccccc3)nc3ccnn23)cc1 [compound 85]
60 | 2 to 20 | CCOc1ccc(Nc2c(C)c(O[C@@H]3CNCC[C@H]3CC(=O)NC3CC3)nc3ccnn23)cc1 [compound 86]
61 | 20 to 100 | CCOc1ccc(Nc2c(C)c(O[C@@H]3CN(C(=O)OCc4ccccc4)CC[C@H]3CC(=O)NCc3ccccc3)nc3ccnn23)cc1 [compound 87]
